Where “and” joins values, the source holds several entries; their conditions need not be identical. Equal values may be shown once. Read-outs that look alike come from different tables or passages of the source.
Experiments:
[1] = target: T1, Bovine milk xanthine oxidase (XO, EC 1.17.3.2) (Bos taurus, UniProt P80457); assay: Xanthine oxidase inhibition kinetics (Lineweaver–Burk and Dixon plots); assay type: biochemical; conditions: for Inhibition Mode: Lineweaver–Burk plots, xanthine 15, 30, 60 μM; for KIS: binding of inhibitor to enzyme-substrate complex, secondary plot of intercept
T1 construct: Xanthine oxidase from bovine milk (EC 1.17.3.2); purchased Sigma Aldrich Co., (St. Louis, MO, USA); host or cells: bovine milk
Experimental: The inhibition mode and inhibitory constants were determined by Lineweaver–Burk and Dixon plots. For obtaining double reciprocal plots, was measured the reaction absorbance of the enzyme, inhibited by different concentrations of inhibitors, with three concentrations of xanthine (15, 30, and 60 μM) at 295 nm and 37 °C. The corresponding kinetic parameters, namely the Michaelis-Menten constant (Km), maximal velocity (Vmax), inhibitory constant (Ki), and dissociation constant of a binding site for the inhibitor to either free enzyme or the enzyme-substrate complex (KI and KIS) were determined by Equations (2)–(4).

human LDL [2] = assay: TBARS assay of Cu2+ induced LDL oxidation; assay type: biochemical; conditions: for IC50: LDL 500 μg/mL, 10 μM Cu2+, 37 °C, 4 h; for Inhibition Rate: at 10 μM of compound, oxidized LDL induced by Cu2+
Experimental: Thiobarbituric acid reactive substances (TBARS) assay was carried out according to the previous method with minor modifications. The absorbance of a product of a reaction between thiobarbituric acid (TBA) and malondialdehyde (MDA) was measured at 540 nm. First, 220 μL of 500 μg/mL LDL in a buffer (10 mM PBS, pH 7.4), 10 μL of […], and 10 μL of different concentrations from 0 to 3 mM of isoflavones or probucol as a positive control were mixed in 1.5 mL Eppendorf tube and incubated at 37 °C for 4 h. After incubation, 100 μL of trichloroacetic acid (TCA) and 100 μL of 0.67% thiobarbituric acid (TBA)/0.05 N NaOH were added to the reaction mixture and heated in the water bath at 100 °C for 15 min. After heating, the mixture was cooled on the ice and centrifuged for 15 min at 3000 rpm. The absorbance of supernatant was measured and the IC50 values were calculated from the inhibition rate derived from Equation (1).

human LDL [3] = assay: Conjugated diene formation on Cu2+ induced LDL oxidation; assay type: biochemical; conditions: at 10 μM of compound; 234 nm, followed for 180 min
Experimental: The formation of conjugated dienes from oxLDL was assessed by the method. The conjugated diene formation occurred in the clear bottom 96-well plate. The mixture of each well containing 230 μL of 550 μg/mL LDL in the buffer (10 mM PBS, pH 7.4) and 10 μL of 250 μM CuSO4 (final concentration: 10 μM) in the presence or absence of isoflavones or probucol as a positive control (final concentration: 10 μM) were incubated at 37 °C for 4 h. Then, the reaction was screened at 234 nm for 180 min every 5 min, continuously, incubating in the SpectraMax M3 multi-mode microplate reader. In the observed absorbance spectra, the lag time of tested samples was obtained as the endpoint indicated in the lag phase.

[4] = target: T1, Bovine milk xanthine oxidase (XO, EC 1.17.3.2); assay: Xanthine oxidase activity (uric acid formation at 295 nm); assay type: biochemical; conditions: sample concentration which leads to 50% xanthine oxidase activity loss; xanthine substrate, pH 7.5, 37 °C; read-out: IC50, xanthine oxidase inhibition (converted)
Experimental: The half-maximal inhibitory concentrations (IC50) were calculated according to the enzyme inhibition rate (%) derived from the change of uric acid formation in comparison with the concentration of inhibitors. The inhibition rate derived from the non-linear regression fitting to Equation (1). Inhibition rate (%) = 100 × [(rate of control reaction − rate of inhibitor reaction)/rate of control reaction](1)

xanthine oxidase = target: T2, xanthine oxidase (Bos taurus, UniProt P80457); assay: Fluorescence quenching of xanthine oxidase (binding affinity); set-up: species or system bovine; conditions: for Stern–Volmer constant KSV / Kd: excitation 290 nm, emission 300-400 nm; for Kd: read-out: binding constant KA (converted); for number of binding sites n: fluorescence quenching
T2 construct: Xanthine oxidase from bovine milk (EC 1.17.3.2); purchased Sigma Aldrich Co., (St. Louis, MO, USA); host or cells: bovine milk
Experimental: The binding affinity between xanthine oxidase and isolated isoflavones were measured by fluorescence quenching method. For the fluorescence quenching experiments, the Trp intensities of xanthine oxidase were monitored wavelength of emission from 300 to 400 nm and excitation of 290 nm. The reaction mixture containing 180 μL of 200 mM sodium pyrophosphate/HCl (pH 7.5), 10 μL of isolated isoflavones diluted in DMSO (3.125, 6.25, 12.5, 25.0, and 50.0 μM), and 10 μL of 1 unit/mL xanthine oxidase was placed in black/flat bottom 96-well microplates. […] The quenching parameters such as the Stern–Volmer constant (KSV), binding constant (KA), and the number of binding sites (n) were determined by the Equations (5) and (6). F0 − F = 1 + KSV [Q](5) Log [(F0 − F)/F] = log KA + n log [Q]f(6)

human LDL [5] = assay: Relative electrophoretic mobility (REM) of Cu2+ oxidized LDL; assay type: biochemical; conditions: 10 μM compound, 10 μM CuSO4, 16 h
Experimental: The relative electrophoretic mobility (REM) of native LDL and oxidized LDL induced by Cu^2+ was performed according to the procedures of references. Before the electrophoresis, the samples containing 10 μM of CuSO4 and 10 μM of nine isoflavones or probucol were treated into LDL (500 μg/mL), then incubated for 16 h at 37 °C in dark condition. The native LDL and pretreated LDL samples loaded onto 0.5% agarose gel in TAE buffer (40 mM Tris-acetate with 1 mM EDTA, pH 8.0) and electrophoresed for 50 min at 100 V. After the electrophoresis, the gel was fixed in 40% ethanol with 10% acetic acid for 30 min, stained with 0.15% coomassie brilliant blue R250, and LDL bands visualized by using the destaining solution (methanol:acetic acid:water, 3:2:15, v/v).

human LDL [6] = assay: Conjugated diene formation on Cu2+ induced LDL oxidation; assay type: biochemical
[7] = target: T1, Bovine milk xanthine oxidase (XO, EC 1.17.3.2); assay: Xanthine oxidase activity (uric acid formation at 295 nm); assay type: biochemical; conditions: initial velocity versus enzyme amount, 0~12.5 μM of compound
[8] = Dixon plots, read-out: Ki (inhibition constant)
[9] = binding of inhibitor to free enzyme, secondary plot of slope, read-out: KI

T2 sequence (P80457 whole entry): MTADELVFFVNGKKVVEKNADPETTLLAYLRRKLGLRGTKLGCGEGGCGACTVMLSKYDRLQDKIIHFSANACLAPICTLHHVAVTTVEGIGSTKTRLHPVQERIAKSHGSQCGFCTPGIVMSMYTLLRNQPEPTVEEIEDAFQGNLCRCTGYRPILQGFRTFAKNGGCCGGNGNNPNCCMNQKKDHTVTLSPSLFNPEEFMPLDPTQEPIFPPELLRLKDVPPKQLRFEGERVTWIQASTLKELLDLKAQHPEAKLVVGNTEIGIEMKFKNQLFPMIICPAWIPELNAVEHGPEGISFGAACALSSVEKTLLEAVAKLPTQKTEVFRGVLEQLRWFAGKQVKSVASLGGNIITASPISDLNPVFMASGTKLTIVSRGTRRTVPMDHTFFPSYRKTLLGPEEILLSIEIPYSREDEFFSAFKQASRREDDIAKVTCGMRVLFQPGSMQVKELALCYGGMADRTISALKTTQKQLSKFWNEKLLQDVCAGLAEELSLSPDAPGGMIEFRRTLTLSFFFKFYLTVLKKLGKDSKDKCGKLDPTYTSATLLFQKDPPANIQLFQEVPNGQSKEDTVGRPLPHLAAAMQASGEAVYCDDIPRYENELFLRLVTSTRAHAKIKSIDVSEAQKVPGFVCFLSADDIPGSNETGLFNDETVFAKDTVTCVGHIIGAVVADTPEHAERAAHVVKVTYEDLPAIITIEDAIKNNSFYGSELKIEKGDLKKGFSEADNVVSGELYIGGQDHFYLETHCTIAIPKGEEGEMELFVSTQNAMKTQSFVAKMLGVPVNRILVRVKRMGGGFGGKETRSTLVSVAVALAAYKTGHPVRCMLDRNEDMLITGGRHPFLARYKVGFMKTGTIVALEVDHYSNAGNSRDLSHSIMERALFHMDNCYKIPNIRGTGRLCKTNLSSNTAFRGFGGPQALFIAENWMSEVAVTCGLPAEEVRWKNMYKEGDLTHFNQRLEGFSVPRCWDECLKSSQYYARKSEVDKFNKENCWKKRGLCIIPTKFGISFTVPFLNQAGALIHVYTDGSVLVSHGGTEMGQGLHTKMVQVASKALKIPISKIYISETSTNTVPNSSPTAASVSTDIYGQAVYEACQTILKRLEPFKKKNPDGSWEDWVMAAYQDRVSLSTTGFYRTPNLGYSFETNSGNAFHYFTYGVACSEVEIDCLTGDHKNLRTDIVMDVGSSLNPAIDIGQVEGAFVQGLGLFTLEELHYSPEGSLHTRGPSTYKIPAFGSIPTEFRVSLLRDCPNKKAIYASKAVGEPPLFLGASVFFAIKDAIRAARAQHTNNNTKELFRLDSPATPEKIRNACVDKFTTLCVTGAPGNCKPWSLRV
T1 sequence (P80457 whole entry): as above

SMILES	Ki [1, 8] [µM]	Inhibition Mode [1]	KIS [1] [µM]	Ki [1, 9] [µM]	IC50 (human LDL [2])	Inhibition Rate (human LDL [2]) [%]	Lag Time of conjugated diene formation (human LDL [3]) [min]	IC50 [4] [µM]	Stern–Volmer constant KSV (xanthine oxidase) [L/mol]	Kd (xanthine oxidase) [µM]	number of binding sites n (xanthine oxidase)	Effect on mobility of oxidized LDL (REM) (human LDL [5])	fold more active than genistein in TBARS assay (human LDL [2]; ratio of TBARS IC50 values versus genistein (IC50 = 30.4 μM)) [fold]	Lag Time of conjugated diene formation (human LDL [6]; 0.3 μM of compound) [min]	Lag Time of conjugated diene formation (human LDL [6]; 0.6 μM of compound) [min]	Lag Time of conjugated diene formation (human LDL [6]; 1.25 μM of compound) [min]	Reversibility of XO inhibition [7]
COc1cc(-c2coc3c(CC=C(C)C)c(O)c(CC=C(C)C)c(O)c3c2=O)ccc1O [Compound 9, flemingsin]	35.1	Mixed type I	49.0	35.2	14.6 µM	40.3	128	36.4	9300	4.11	0.6736	clearly reduced					
O=c1c(-c2ccc(O)cc2)coc2cc(O)cc(O)c12 [Compound 1, genistein]	11.5	competitive inhibitor			30.4 ± 1.5 µM	20.3	80	25 ± 2.3	18450	1.99	0.7268						
CC(C)=CCc1cc(-c2coc3cc(O)cc(O)c3c2=O)c(CC=C(C)C)c(O)c1O [Compound 4, 5,7,3′,4′-tetrahydroxy-2′,5′-di(3-methylbut-2-enyl)isoflavone]	11.5	Mixed type I	23.0	10.7	0.7 µM	100	> 180	10.9	94970	1.12	1.4031		40	120	160	180	
C=CC(C)(C)C1=Cc2c(c(CC=C(C)C)c3occ(-c4ccc(O)c(O)c4)c(=O)c3c2O)OC1(C)C [Compound 5, flemiphilippinin A]	12.8	Mixed type I	26.3	12.5	2.7 µM and 2.8 µM	94.1	> 180	14.8	55310	1.38	1.0018						
CC(C)=CCc1c(O)c(CC=C(C)C)c2occ(-c3ccc(O)cc3)c(=O)c2c1O [Compound 7, 8-γ,γ-dimethylallylwighteone]	11.3	Mixed type I	12.9	7.2	15.2 µM	38.7	124	16.9	47970	1.5	0.8836	clearly reduced					
CC(C)=CCc1c2c(c3occ(-c4ccc(O)cc4)c(=O)c3c1O)C=CC(C)(C)O2 [Compound 8, osajin]	33.9	Mixed type I	52.4	35.1	24.6 µM	25.4	108	34.7	9870	2.14	0.6889						
CC(C)=CCc1c(-c2coc3cc(O)cc(O)c3c2=O)cc2c(c1O)OC(C)(C)C=C2 [Compound 6, 5,7,3′-trihydroxy-2′-(3-methylbut-2-enyl)-4′,5′-(3,3-dimethylpyrano)isoflavone]	19.3	Mixed type I	40.0	18.8	10.9 µM	48.8		20.4	36450	1.6	0.8154	clearly reduced					
CC(C)=CCc1c2c(c(O)c3c(=O)c(-c4ccc(O)c(O)c4)coc13)C=CC(C)(C)O2 [Compound 2, auriculasin]	11.1	Mixed type I	28.1	10.8	2.4 µM	95.9	> 180	12.4	77550	1.33	1.0359						
CC(C)(Sc1cc(C(C)(C)C)c(O)c(C(C)(C)C)c1)Sc1cc(C(C)(C)C)c(O)c(C(C)(C)C)c1 [Probucol, probucol, reference compound]					35.1 µM	16.4	83										
CC(C)=CCc1c(O)c(CC=C(C)C)c2occ(-c3ccc(O)c(O)c3)c(=O)c2c1O [Compound 3, 6,8-diprenylorobol]	5.5	Mixed type I	15.5	5.7	1.9 µM	98.6	> 180	7.8	125300	1.11	1.4392						reversible

— article PMC7411605, “Xanthine Oxidase Inhibition and Anti-LDL Oxidation by Prenylated Isoflavones from Flemingia philippinensis Root” (Molecules, 2020)
